Test results reported in US10434112B2, “Use of agonists of formyl peptide receptor 2 for treating dermatological diseases” (Allergan, Inc., priority 2013, dated 2019).
pEC50: −log10 of the molar value.

What follows are compounds tested against human FPR2 receptor (Homo sapiens (Human), UniProt P25090) (assay: FLIPR Ca+2 response in HEK-Gα16 cells stably expressing the human FPR2 receptor). Details: Table 4.
Assay type: cell-based
Set-up: FPR2 (% eff): unit not given here
Procedure, shortened: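 HEK-Gα16 cells stably expressing human FPR2, loaded with 2 μM Fluo-4 in HBSS/20 mM HEPES for 40 min at 37° C., then washed. Ligands added in HBSS/Hepes and Ca+2 responses recorded on FLIPR in relative fluorescence units.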

Chain of human FPR2 receptor (P25090 whole entry): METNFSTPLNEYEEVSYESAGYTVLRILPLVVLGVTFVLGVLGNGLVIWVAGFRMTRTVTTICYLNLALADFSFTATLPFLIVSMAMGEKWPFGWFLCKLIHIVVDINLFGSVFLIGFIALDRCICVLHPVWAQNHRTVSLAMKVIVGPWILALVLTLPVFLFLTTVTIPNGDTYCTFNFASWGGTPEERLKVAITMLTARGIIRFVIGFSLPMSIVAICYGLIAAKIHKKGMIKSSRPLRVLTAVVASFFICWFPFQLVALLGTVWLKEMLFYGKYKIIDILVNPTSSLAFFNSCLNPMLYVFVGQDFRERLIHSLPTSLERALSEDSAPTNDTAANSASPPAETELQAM

Structure (SMILES) | pEC50
CSc1ccc(NC(=O)N[C@@H](CC(C)C)C(=O)NCC(=O)O)cc1 [Compound 130, {[(2S)-4-methyl-2-({[4-(methylsulfanyl)phenyl]carbamoyl}amino)pentanoyl]amino}acetic acid] | 8.52

Same assay, conditions: Table 4; value in brackets, given mostly as fraction

Structure (SMILES) | FPR2 (% eff)
CCOP(=O)(CNC(=O)[C@H](Cc1ccccc1)NC(=O)Nc1ccc(Br)cc1)OCC [Compound 118, diethyl ({[(2S)-2-{[(4-bromophenyl)carbamoyl]amino}-3-phenylpropanoyl]amino}methyl)phosphonate] | 0.93
CC(C)C[C@H](NC(=O)Nc1ccc(Br)cc1)C(=O)NCC(=O)N(C)C [Compound 120, (2S)-2-{[(4-bromophenyl)carbamoyl]amino}-N-[2-(dimethylamino)-2-oxoethyl]-4-methylpentanamide] | 0.99
CC(C)C[C@H](NC(=O)Nc1ccc(I)cc1)C(=O)O [Compound 121, (2S)-2-{[(4-iodophenyl)carbamoyl]amino}-4-methylpentanoic acid] | 0.93
CCC[C@H](NC(=O)Nc1ccc(Br)cc1)C(=O)NCP(=O)(O)OCC [Compound 123, ethyl hydrogen ({[(2S)-2-{[(4-bromophenyl)carbamoyl]amino}pentanoyl]amino}methyl) phosphonate] | 0.96
CCC[C@H](NC(=O)Nc1ccc(Br)cc1)C(=O)NCP(=O)(OC(C)C)OC(C)C [Compound 125, dipropan-2-yl ({[(2S)-2-{[(4-bromophenyl)carbamoyl]amino}pentanoyl]amino}methyl) phosphonate] | 1.0
CCOP(=O)(O)CNC(=O)[C@H](Cc1ccccc1)NC(=O)Nc1ccc(Br)cc1 [Compound 126, ethyl hydrogen ({[(2S)-2-{[(4-bromophenyl)carbamoyl]amino}3-phenylpropanoyl]amino}methyl)phosphonate] | 1.0
CC(C)C[C@H](NC(=O)Nc1ccc(Br)cc1)C(=O)NCS(=O)(=O)O [Compound 127, {[(2S)-2-{[(4-bromophenyl)carbamoyl]amino}4-methylpentanoyl]amino} methanesulfonic acid] | 0.91
CSc1ccc(NC(=O)N[C@@H](CC(C)C)C(=O)O)cc1 [Compound 128, (2S)-4-methyl-2-({[4-(methylsulfanyl)phenyl]carbamoyl}amino)pentanoic acid] | 0.92
CSc1ccc(NC(=O)N[C@@H](CC(C)C)C(=O)NCC(=O)O)cc1 [Compound 130, {[(2S)-4-methyl-2-({[4-(methylsulfanyl)phenyl]carbamoyl}amino)pentanoyl]amino}acetic acid] | 1.0
CC(C)C[C@H](NC(=O)Nc1ccc(Br)cc1)C(=O)NCP(=O)(OC(C)C)OC(C)C [Compound 131, dipropan-2-yl({[(2S)-2-{[(4-bromophenyl)carbamoyl]amino}-4-methylpentanoyl]amino}methyl)phosphonate] | 1.0
CC(C)C1(CO)NC(=O)N(NC(=O)Nc2ccc(Br)cc2)C1=O (stereo not shown) [Compound 132, 1-(4-bromophenyl)-3[4-(hydroxymethyl)-2,5-dioxo-4-(propan-2-yl)imidazolidin-1-yl]urea] | 0.86
CC(C)C1(CC(=O)NCCO)NC(=O)N(NC(=O)Nc2ccc(Br)cc2)C1=O (stereo not shown) [Compound 133, 2-[1-{[(4-bromophenyl)carbamoyl]amino}-2,5-dioxo-4-(propan-2-yl)imidazolidin-4-yl]-N-(2-hydroxyethyl)acetamide] | 1.0
CCOP(=O)(CNC(=O)[C@H](CC(C)C)NC(=O)Nc1ccc(C(F)(F)F)cc1)OCC [Compound 134, diethyl ({[(2S)-4-methyl-2-({[4-(trifluoromethyl)phenyl]carbamoyl}amino)pentanoyl]amino}methyl)phosphonate] | 0.97
CCOP(=O)(O)CNC(=O)[C@H](CC(C)C)NC(=O)Nc1ccc(C(F)(F)F)cc1 [Compound 135, ethyl hydrogen ({[(2S)-4-methyl-2-({[4-(trifluoromethyl)phenyl]carbamoyl}amino)pentanoyl]amino}methyl)phosphonate] | 0.91
CC(C)C[C@H](NC(=O)Nc1ccc(C(F)(F)F)cc1)C(=O)NCc1nnn[nH]1 [Compound 136, (2S)-4-methyl-N-(1H-tetrazol-5-ylmethyl)-2-({[4-(trifluoromethyl)phenyl]carbamoyl}amino)pentanamide] | 0.96
